Data set [1] has as its system brown rice planthopper having a low susceptibility to insecticides. Type of data set: in vivo. The following applies: 0.05 mg/seedling soil drenching. The procedure:
(§1) Rice seedlings grown in pots were subjected to soil drenching treatment with solutions of the inventive compounds at a predetermined concentration prepared to 10% acetone/water. Three days after treatment, ten second-instar brown rice planthopper larvae having a low susceptibility to insecticides were released onto each seedling. The seedlings and insects were then held in an incubation chamber at 25° C. (16-hour period of light, 8-hour dark period). Three days after released, the numbers of live and dead insects were counted, and the mortality was calculated from the following formula. The test was carried out as two replications. Mortality (%)=[number of dead insects/(number of live insects+number of dead insects)]×100
The pests used in this test were insects that had been raised indoors for successive generations over a long period of time (susceptible line), and insects that had been raised indoors for successive generations after being collected (I) in 2007 within Kumamoto Prefecture and (II) in 2005 within Fukuoka Prefecture (field-collected lines).

The subject of data set [2] is small brown planthopper having a low susceptibility to insecticides. Put plainly: Small brown planthopper control test, pests having a low susceptibility to insecticides (soil drenching). In kind it is in vivo. The following applies: 0.01 mg/seedling soil drenching. The procedure: as §1, with “second-instar small” for “second-instar”, “brown” for “brown rice”
The pests used in this test were insects that had been raised indoors for successive generations over a long period of time (susceptible line), and insects that had been raised indoors for successive generations after being collected in 2006 within Kumamoto Prefecture (field-collected line).

Data set [3] deals with house fly crude enzyme extract. Put plainly: In vitro metabolic test using house fly crude enzyme extract. Type of data set: in vitro ADME. The note with it: house fly crude enzyme extract with NADP+ regenerating system, 25° C., 40 hours, LC/MS. The procedure: As mentioned in Pest Management Science, 59(3), 347-352 (2003) and the Journal of Pesticide Science, 29(2), 110-116 (2004), imidacloprid is known to be inactivated by incurring oxidative metabolism, which is thought to be one mechanism of acquiring resistance to this agent. The following experiment was carried out to confirm the effects in pests which have acquired such resistance.
An amount of 10 mL of a potassium phosphate buffer solution (pH 7.4, containing 1 mM EDTA) was added to adult house flies (0.645 g), and the flies were thoroughly homogenized in a Physcotron (Niti-On Medical and Physical Instruments Manufacturing Co.). The homogenate was then centrifuged at 10,000 g for 15 minutes. The resulting supernatant was additionally centrifuged at 100,000 g for 60 minutes, giving a precipitate. The precipitate was dissolved in 1 mL of a potassium phosphate buffer, and the resulting solution was used as the crude enzyme extract. The enzyme extraction operations were all carried out on ice or at 4° C.
The reagents were mixed in the following proportions within a 1.5 mL tube, and the reaction was effected at 25° C. for 40 hours. Following the reaction, 1 mL of acetone was added and the mixture was stirred, following which the precipitate that formed was centrifuged at 12,000 rpm for 5 minutes. […]

Data set [4] has as its system Haemaphysalis longicornis. In kind it is in vivo. The note with it: 10 ppm acetone solution (30 μL) dry film, larval ticks, 1 day after release. On the procedure: Glass vials having a capacity of 4 mL were each filled with 30 μL of an acetone solution containing 200 ppm or 10 ppm of the respective compounds. These filled vials were placed on a shaker and air-dried while being spun, thereby forming dry films of the compounds on the inner walls of the vials. After the vials had been dried for at least 24 hours, ten larval ticks (Haemaphysalis longicornis) were released into each vial, following which the vials were capped. The vials were then left at rest in an incubation chamber at 25° C., 85% humidity and complete darkness. One day after released, the numbers of live and dead ticks were counted, and the mortality was calculated from the following formula.
This test was carried out as two replications. Mortality (%)=[number of dead ticks/(number of live ticks+number of dead ticks)]×100

We go through 1 compound from patent US10085449B2, “N-[1-((6-chloropyridin-3-yl)methyl)pyridin-2(1H)-ylidene]-2,2,2- trifluoroacetamide for control of agricultural/horticultural pests” (priority 2010, dated 2018).

Where two headings read alike, the source gives them in different places.

As for `O=[N+]([O-])NC1=NCCN1Cc1ccc(Cl)nc1` [imidacloprid], the Mortality in data set [1] (field-collected line (I) 2007 Kumamoto Prefecture) is recorded as 40%; in data set [1] (field-collected line (II) 2005 Fukuoka Prefecture) it was 60%; in data set [1] (susceptible line), 100%; in data set [2] (field-collected line (2006 Kumamoto Prefecture)), 50%; in data set [2] (susceptible line), 100%; in data set [4], 4%. Moreover, the “Sum of the surface area percentages for the metabolites” value in data set [3] is given as 2.55%.
